Target: Transcription factor Jun (Homo sapiens, UniProt P05412)
Test: Inhibition of c-Jun phosphorylation in HepG2 cells

Transcription factor Jun, sequence (P05412 whole entry): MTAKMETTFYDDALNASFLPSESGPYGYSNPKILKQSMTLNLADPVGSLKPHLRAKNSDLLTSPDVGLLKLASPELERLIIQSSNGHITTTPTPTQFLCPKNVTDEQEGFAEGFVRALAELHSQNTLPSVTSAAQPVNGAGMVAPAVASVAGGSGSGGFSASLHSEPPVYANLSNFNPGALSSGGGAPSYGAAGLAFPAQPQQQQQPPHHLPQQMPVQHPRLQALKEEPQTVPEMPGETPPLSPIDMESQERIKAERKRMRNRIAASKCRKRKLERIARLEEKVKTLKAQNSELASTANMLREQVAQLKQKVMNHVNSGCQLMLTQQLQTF

CCOc1nc(C(=O)NCc2ccc(S(C)(=O)=O)cc2)cc(N)c1C#N [4-amino-5-cyano-6-ethoxy-N-[(4-methanesulfonylphenyl)methyl]pyridine-2-carboxamide]
EC50: 0.318 µM
